In ChEMBL document CHEMBL1201862, “PubChem BioAssay data set” (2004):
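In this assay, cells in 96-well plates receive the compound at five concentrations for 48 hours. Endpoints are linearly interpolated between the surrounding concentrations. At the GI50, growth is halved.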 Active and inactive are the calls of the source. No stated cut-off is given here; in the data, active = GI50 up to about 1.1 µM and inactive = higher.

Legend:
Test in all cases: inhibition of tumour cell growth, NCI panel, 48 h
SNB-78 = test system: SNB-78
XF498 = test system: XF498
LXFL 529 = test system: LXFL 529
HOP-18 = test system: HOP-18
M19-MEL = test system: M19-MEL
DMS-273 = test system: DMS-273
KM-20L2 = test system: KM-20L2
DMS-114 = test system: DMS-114
RXF 631 = test system: RXF 631

Compound	GI50 (SNB-78)	GI50 (XF498)	GI50 (LXFL 529)	GI50 (HOP-18)	GI50 (M19-MEL)	GI50 (DMS-273)	GI50 (KM-20L2)	GI50 (DMS-114)	GI50 (RXF 631)
CNc1ccc(/C=C2\C=Cc3ccccc32)cc1	44.6 µM (inactive)	40.9 µM (inactive)	25.9 µM (inactive)	16.4 µM (inactive)	43.2 µM (inactive)	14.2 µM (inactive)	19.1 µM (inactive)	17 µM (inactive)	–
NNC(=S)N/N=C(\c1nc2ccc(Cl)cc2nc1O)C(O)c1cccc([N+](=O)[O-])c1 (stereo unspecified)	> 100 µM (inactive)	> 100 µM (inactive)	> 74.6 µM (inactive)	> 100 µM (inactive)	> 100 µM (inactive)	> 41.1 µM (inactive)	> 100 µM (inactive)	–	32.3 µM (inactive)
CN(C)C(=S)/N=c1\ss/c(=N\C(=S)N(C)C)n1-c1ccc(Cl)cc1	> 100 µM (inactive)	> 100 µM (inactive)	> 100 µM (inactive)	–	–	39.9 µM (inactive)	> 100 µM (inactive)	–	–
N#CCC(=O)N/N=C(\C(=O)Nc1ccc(Cl)c(Cl)c1)C1CN(c2ccccc2)N=C1N (stereo unspecified)	> 100 µM (inactive)	–	> 100 µM (inactive)	> 100 µM (inactive)	> 100 µM (inactive)	> 100 µM (inactive)	> 100 µM (inactive)	> 100 µM (inactive)	–
O=Cc1ccc(-c2ccc(-c3ccc(C=O)s3)o2)s1	> 72.8 µM (inactive)	–	0.186 µM (active)	> 100 µM (inactive)	> 100 µM (inactive)	26.2 µM (inactive)	31.3 µM (inactive)	> 84.1 µM (inactive)	0.541 µM (active)
Cc1ccccc1NC(=O)C(=O)C(C#N)c1ccccc1C (stereo unspecified)	> 100 µM (inactive)	34 µM (inactive)	> 100 µM (inactive)	> 100 µM (inactive)	–	> 100 µM (inactive)	> 100 µM (inactive)	> 100 µM (inactive)	–
COC(=O)N/N=C(\c1nc2ccc(Cl)cc2nc1O)C(O)c1ccc([N+](=O)[O-])cc1 (stereo unspecified)	> 100 µM (inactive)	–	> 100 µM (inactive)	–	> 100 µM (inactive)	> 100 µM (inactive)	> 100 µM (inactive)	> 100 µM (inactive)	> 100 µM (inactive)
O=C1c2cc([N+](=O)[O-])cc3cc([N+](=O)[O-])cc(c23)C(=O)N1CCCNCCNCCCN1C(=O)c2cc([N+](=O)[O-])cc3cc([N+](=O)[O-])cc(c23)C1=O	< 0.0193 µM (active)	< 0.01 µM (active)	< 0.01 µM (active)	0.542 µM (active)	0.0381 µM (active)	< 0.01 µM (active)	0.129 µM (active)	0.0469 µM (active)	–
Cn1cc(C(=O)C2CCCCC2)ccc1=O	> 100 µM (inactive)	> 100 µM (inactive)	–	–	–	> 100 µM (inactive)	> 100 µM (inactive)	> 100 µM (inactive)	> 100 µM (inactive)
COC(=O)/C(C=O)=C/Sc1ccccc1	26.5 µM (inactive)	40 µM (inactive)	18.3 µM (inactive)	> 100 µM (inactive)	20 µM (inactive)	18.4 µM (inactive)	29.7 µM (inactive)	16.7 µM (inactive)	14.9 µM (inactive)
O=S1(=O)OCCOS(=O)(=O)C1(Br)Br	> 100 µM (inactive)	–	> 100 µM (inactive)	–	> 100 µM (inactive)	> 100 µM (inactive)	–	> 100 µM (inactive)	–
Cc1c2c(cc3c(=O)ccn(CCN(C)C)c13)c(=O)ccn2CCN(C)C	47.1 µM (inactive)	10.4 µM (inactive)	4.46 µM (inactive)	15.7 µM (inactive)	16.4 µM (inactive)	4.18 µM (inactive)	5.04 µM (inactive)	16.3 µM (inactive)	–
